For data set [1], the system named is prostate carcinoma DU-145. The experiment in a line: Luciferase (pGL3) transfection efficiency of lipoplexes, DU-145. Type of data set: cell-based. The following applies: optimized lipoplexes, Chol 1:1, FIG. 7. The text has this:
(§1) It is well known that specific cell types and cell lines may vary in their ability to be transfected. In addition to the NCI-H23 lung cancer cell line, we therefore tested our optimized formulation of 5AMyr/Chol 1:1 versus DOTAP/Chol 1:1 as reference on four other cell lines from tumors representing cancers of great importance to human health, as well as different tissues of origin: breast carcinomas MCF-7, MDA-Mb231, prostate carcinoma DU-145 and glioma SWB-95 (FIG. 7).
(§2) Dioleoylphosphatidylethanolamine (DOPE), cholesterol (CHOL), N-(2,3-dioleoyloxypropyl)-N,N,N-trimethylammonium chloride (DOTAP) were commercial products. The purity of the lipids was checked by thin layer chromatography and also by differential scanning calorimetry (DSC), which was also used for determining the critical temperature Tc. For the preparation of the liposomes a protocol optimized for this type of compounds was adopted as follows. The cationic lipid (with or without helper lipid) was dissolved in chloroform/methanol (2/1, v/v) to reach a final concentration of 1 mM for the charged species. […]
(§3) For the luciferase assay, 20 μL of cell lysate was aliquoted in a test tube and assessed directly using a luciferase assay kit from Promega by means of a luminometer.
(§4) The protein content was quantified using a bicinchoninic acid (BCA) assay. […]

The test system of data set [2] is breast carcinoma MDA-Mb231. The experiment in a line: Luciferase (pGL3) transfection efficiency of lipoplexes, MDA-Mb231. In kind it is cell-based. The following applies: optimized lipoplexes, Chol 1:1, FIG. 7.
Source text: as §1, §2, §3, §4

Data set [3] in a line: Critical (phase transition) temperature Tc by differential scanning calorimetry. Type of data set: physicochemical. The gist of the method: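 Phase transition temperature Tc of the cationic lipids measured by differential scanning calorimetry at a heating rate of 5 °C/minute.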
The subject of a further data set is glioma SWB-95. The experiment in a line: Luciferase (pGL3) transfection efficiency of lipoplexes, SWB-95. To be noted: optimized lipoplexes, Chol 1:1, FIG. 7. Type of data set: cell-based.
Source text: as §1, §2, §3, §4

The test system of a further data set is breast carcinoma MCF-7. The experiment in a line: Luciferase (pGL3) transfection efficiency of lipoplexes, MCF-7. To be noted: optimized lipoplexes, Chol 1:1, FIG. 7. Type of data set: cell-based.
Source text: as §1, §2, §3, §4

On to `CCCCCCCCCCCCCC(=O)OCC(COC(=O)CCCCCCCCCCCCC)[n+]1c(C)cc(C)cc1C.F[P-](F)(F)(F)(F)F` [Lipid 5AMyr, 1-(1,3-dimyristoyloxypropane-2-yl)-2,4,6-trimethylpyridinium hexafluorophosphate], for which the “transfection efficiency (luciferase activity normalized for protein)” value is 327 RLU/μg of protein in data set [1], 2950 RLU/μg of protein in data set [2], 10934 RLU/μg of protein in the data set on glioma SWB-95 and 206000 RLU/μg of protein in the data set on breast carcinoma MCF-7. In data set [3] (pure lipid), the “Tc (critical temperature), Pure” value was 67.8 °C. Further, in data set [3] (with DOPE, 1:1 molar ratio), the “Tc (critical temperature), With DOPE (1:1 molar ratio)” value was 22.4 °C. In addition, the “Tc (critical temperature), With cholesterol (1:1 molar ratio)” value in data set [3] (with cholesterol, 1:1 molar ratio) stood at 64.8 °C.

Values taken from patent US7456197B2, “Pyridinium cationic lipids as gene transfer agents” (The Texas A&M University System, priority 2003, dated 2008).
